The structures appear in SMILES notation.

Common to all, as to format: cell-based, bovine
In assay [1] the test system is parasite-infected cells (Theileria annulata - TBL3). Nature of the assay: Cell viability XTT assay, TBL3. On the procedure:
(§1) All infected bovine cell lines used in this study were previously described: TBL3 cells were derived from in vitro infection of the spontaneous bovine-B lymphosarcoma cell line, BL3, with Hissar stock of T.annulata. The TpMD409 lymphocyte cell line are infected with T. parva. The culture conditions of these cell lines were previously described by Moreau et al., 1999. Cells were cultured in RPMI 1640 (Gibco-BRL, Paisley, UK), supplemented with 10% heat-inactivated Fetal calf serum, 4mM L-Glutamine, 25mM HEPES, 10µM β-mercaptoethanol and 100µg/ml penicillin/streptomycin in a humidified 5%CO2 atmosphere at 37°C. HepG2, NIH/3T3 and MEF cells lines were cultured in DMEM (Gibco-BRL, Paisley, UK), supplemented with 10% heat-inactivated Fetal calf serum, 4mM L-Glutamine, 25 mM HEPES, 10µM β-mercaptoethanol and 100µg/ml penicillin/streptomycin in a humidified 5% CO2 atmosphere at 37°C. Cell numbers, as judged by Trypan Blue exclusion test, were determined by counting cells using a Countess automated cell counter (Invitrogen, CA, USA). The anti-parasite drug Buparvaquone (BW720c) was used at 200ng/ml for 72 hours. BW720c has no effect on growth of uninfected cells. […]

Assay [2] relates to Parasite-infected TBL3 cells. The assay can be described thus: Cell proliferation, live cell count after trypan blue exclusion, TBL3. Particulars: live cells counted after trypan blue exclusion. On the procedure: as §1
The subject of assay [3] is non-parasitized BL3 cells. The assay can be described thus: Cell proliferation, live cell count after trypan blue exclusion, BL3. Particulars: BL3 / uninfected cells. How it is done: All infected bovine cell lines used in this study were previously described: TBL3 cells were derived from in vitro infection of the spontaneous bovine-B lymphosarcoma cell line, BL3, with Hissar stock of T.annulata. The TpMD409 lymphocyte cell line are infected with T. parva. The culture conditions of these cell lines were previously described by Moreau et al., 1999. Cells were cultured in RPMI 1640 (Gibco-BRL, Paisley, UK), supplemented with 10% heat-inactivated Fetal calf serum, 4mM L-Glutamine, 25mM HEPES, 10µM β-mercaptoethanol and 100µg/ml penicillin/streptomycin in a humidified 5%CO2 atmosphere at 37°C. HepG2, NIH/3T3 and MEF cells lines were cultured in DMEM (Gibco-BRL, Paisley, UK), supplemented with 10% heat-inactivated Fetal calf serum, 4mM L-Glutamine, 25 mM HEPES, 10µM β-mercaptoethanol and 100µg/ml penicillin/streptomycin in a humidified 5% CO2 atmosphere at 37°C. Cell numbers, as judged by Trypan Blue exclusion test, were determined by counting cells using a Countess automated cell counter (Invitrogen, CA, USA). The anti-parasite drug Buparvaquone (BW720c) was used at 200ng/ml for 72 hours. BW720c has no effect on growth of uninfected cells.
Cells were treated with either Juglone at 5 µM resuspended in Ethanol (Sigma, St Louis, MO, Ref.: H47003), or PiB at 1 µM resuspended in DMSO (Sigma, Ref.: B7688), or Dimethyloxalylglycine DMOG at 0.5 mM resuspended in DMSO (Tebu-bio, MO, USA).

In assay [4] the test system is Parasite-infected TBL3 cells. The assay can be described thus: Soft agar colony forming assay, TBL3. Particulars: colonies counted 10 days after plating. On the procedure: as §1, with “HepG2, NIH/3T3 and MEF cells lines were cultured in DMEM (Gibco-BRL, Paisley, UK), supplemented with 10% heat-inactivated Fetal calf serum, 4mM L-Glutamine, 25 mM HEPES, 10µM β-mercaptoethanol and 100µg/ml penicillin/streptomycin in a humidified 5% CO2 atmosphere at 37°C.” left out, “USA).” for “USA). The anti-parasite drug Buparvaquone (BW720c) was used at 200ng/ml for 72 hours. BW720c has no effect on growth of uninfected cells.”
(§2) A two-layer soft agar culture system was used. […] Cultures were incubated in humidified 37°C incubators with an atmosphere of 5%CO2 in air, and control plates were monitored for growth using a microscope. At the time of maximum colony formation (10 days in culture), final colony numbers were counted manually after fixation a staining with 0.005% Crystal Violet (Sigma, Ref.: C3886).

The test system of assay [5] is TpMD409 cells. The assay can be described thus: Soft agar colony forming assay, TpMD409. Conditions: colonies counted 10 days after plating. On the procedure:
as §1, with “HepG2, NIH/3T3 and MEF cells lines were cultured in DMEM (Gibco-BRL, Paisley, UK), supplemented with 10% heat-inactivated Fetal calf serum, 4mM L-Glutamine, 25 mM HEPES, 10µM β-mercaptoethanol and 100µg/ml penicillin/streptomycin in a humidified 5% CO2 atmosphere at 37°C.” left out, “USA).” for “USA). The anti-parasite drug Buparvaquone (BW720c) was used at 200ng/ml for 72 hours. BW720c has no effect on growth of uninfected cells.”
as §2

Assay [6] relates to FBW7 and c-Jun in TBL3 cells. The assay can be described thus: Immunoblot of FBW7 and c-Jun protein in TBL3 cells. How it is done:
Total proteins were extracted with Laemmli lysis, sonicated: 15 secs ON / 30 secs OFF for 5 min, resolved on 10.5% acrylamide/bis-acrylamide SDS-PAGE gels and transferred to nitrocellulose membranes (Thermo Fisher Scientific, MA, USA) in transfer buffer. Protein transfer was assessed by Ponceau-red staining. Membranes were blocked in Tris-buffered saline pH7.4 containing 0.1% Tween-20 and 5% milk for 1 h at room temperature. Incubations with primary antibodies were carried out at 4°C overnight using antibody dilutions as manufacturer recommendations in Trisbuffered saline pH7.4, 0.05% Tween-20 and 5% milk. Following 1 h incubation with an anti-rabbit or anti-mouse peroxidase-conjugated antibody (Sigma, St Louis, MO, USA) at room temperature, proteins were detected by chemiluminescence (Thermo Fisher Scientific, MA, USA) following the manufacturer's instructions. The following antibodies were used: Rabbit anti-TaPIN (Home-made antibody, Proteogenix, Peptide used: […]-Cys), rabbit anti-PIN1 (Cell Signaling, Ref: 3722), rabbit anti-TaActin (kindly provided by Jake Baum, Australia), rabbit anti-c-Jun (Santa Cruz, CA, USA Ref: sc1694), mouse anti-αTubulin (Sigma, Ref: T9026), , rabbit anti-HIF1α (Abcam, Cambridge, UK; Ref: ab75918), rabbit anti-Hexokinase II (Cell Signaling, Ref: C64G5), rabbit anti-PDK1 (Cell signaling, Ref: C47H1), mouse anti-HA (Roche, Ref: 11583816001), rabbit anti-FBW7 (Bethyl Laboratories, Ref: A301-721A), rabbit anti-Histone H3 (Abcam, Ref: ab1791), rabbit anti-PKM2 (Abcam, Ref: ab38237), mouse anti-Actin (Sigma, Ref: A1978) and monoclonal anti-FLAG M2-Peroxidase (Sigma, Ref: A8592). c-Jun, FBW7 or PKM2/Actin ratios were calculated after Western blot signal quantification with the Plot Lanes Analysis tool of Image J software (National Institutes of Health, Bethesda, MD, USA).

Assay [7] has as its system FBW7 and c-Jun mRNA in TBL3 cells. Nature of the assay: RT-qPCR of FBW7 and c-Jun mRNA in TBL3 cells. How it is done:
Total cellular RNAs were extracted using an RNeasy Plus Mini Kit (Qiagen, Hilden, Germany) and parasite RNAs were extracted using the classical Trizol Protocol. cDNA synthesis was performed with the Reverse Transcriptase Superscript III (Invitrogen, CA, USA).
Quantitative PCR amplification was performed in the ABI 7500 machine (Applied Biosystems, CA, USA) using the Sybr Green reagent (Applied Biosystems, CA, USA) using the primers listed in Table 5 below. The detection of a single product was verified by dissociation curve analysis. Relative quantities of mRNA were analyzed using the delta Ct method. The βactin qPCR was used for normalization. Table 5: qPCR primers

As for `CC(C)(C)C1CCC(CC2=C(O)C(=O)c3ccccc3C2=O)CC1` (stereo not shown) [Buparvaquone, 2-((4-tert-butylcyclohexyl)methyl)-3-hydroxy-1,4-naphthoquinone], the “viability of parasite-infected cells” value in assay [1] (TBL3, 72h, XTT assay) is recorded as “decreased the viability”. Moreover, the cell proliferation entry in assay [2] is recorded as “reduced”. Further, in assay [3], the “proliferation of non-parasitized cells” value is reported as “no effect”. In assay [4], the “transformed phenotype, colonies in soft agar” value (shortened to “transformed phenotype”) is on record as “reversed the transformed phenotype”. For the same compound, the “transformed phenotype” value in assay [5] is “reversed the transformed phenotype”. In addition, in assay [6], the FBW7 protein result is recorded as “induced” and the c-Jun levels result is “reduced”. In assay [7], the mRNA expression entry is on record as “no effect”.

Take `CCOC(=O)CN1C(=O)c2ccc3c4c(ccc(c24)C1=O)C(=O)N(CC(=O)OCC)C3=O` [PiB, benzo[Imn][3,8]phenanthroline-2,7-diacetic acid, 1,3,6,8-tetrahydro-1,3,6,8-tetraoxo-, diethyl ester]: the host cell viability entry in assay [1] (PiB, infected cell line not given) was “reduced”. Also, the cell proliferation result in assay [2] was “affects TBL3 cell proliferation”. Further, the “proliferation of non-parasitized cells” value in assay [3] was “no effect”. Besides, the “transformed phenotype” value in assay [4] is “reduced”. In assay [5], the “transformed phenotype” value was “reduced”. In addition, in assay [6], the FBW7 protein result is “induced” and the c-Jun levels result is listed as “reduced”. The mRNA expression result in assay [7] is listed as “no effect”.

For the origin of these results see patent publication EP2845588A1, “PIN1 inhibitors for use in the prevention and/or treatment of theileriosis, and related applications” (Centre National de la Recherche Scientifique (CNRS), priority 2013, dated 2015).
